The source of these data is patent publication US20140377241A1, “BIOPREPARATION BALIS FOR THE PROPHYLAXIS AND TREATMENT OF INFECTIOUS DISEASES” (priority 2010, published 2014).

In one assay the test system is B. subtilis VKPM B-8611. The assay is described as follows: Sensitivity to antibiotics of the Bacillus type strains (inhibited growth area). The assay is classed as cell-based.
The test system of assay [1] is B. licheniformis VKPM B-8610. The description is as above. The assay is classed as cell-based, Bacillus licheniformis.

Read-outs that look alike come from different tables or passages of the source.

Turning to `CC1(C)S[C@@H]2[C@H](NC(=O)C(C(=O)O)c3ccccc3)C(=O)N2[C@H]1C(=O)O` (stereo partly shown) [Carbenicillin], the “Diameter of the culture's inhibited growth area” value in the assay with B. subtilis VKPM B-8611 amounted to 23 ± 0.5 mm; in assay [1] (B. licheniformis VKPM B-8610) it was 20 ± 0.1 mm.

Regarding `CC1(C)S[C@@H]2[C@H](NC(=O)[C@H](N)c3ccccc3)C(=O)N2[C@H]1C(=O)O` [Ampicillin], the “Diameter of the culture's inhibited growth area” value is 11 ± 0.2 mm in the assay on B. subtilis VKPM B-8611 and “∘” in assay [1] (B. licheniformis VKPM B-8610).

Take `C[C@@H](O)[C@H]1C(=O)N2C(C(=O)O)=C(SCCN=CN)C[C@H]12` [Imipenem]: the entries for the “Diameter of the culture's inhibited growth area” value (in the assay with B. subtilis VKPM B-8611; in assay [1] (B. licheniformis VKPM B-8610)) were 38 ± 0.2 mm and 30 ± 0.1 mm, respectively.

Turning to `O=C(N[C@H](CO)[C@H](O)c1ccc([N+](=O)[O-])cc1)C(Cl)Cl` [Chloramphenicol], the “Diameter of the culture's inhibited growth area” value was 18 ± 0.3 mm in the assay with B. subtilis VKPM B-8611 and 10 ± 0.1 mm in assay [1] (B. licheniformis VKPM B-8610).

On to `CCC[C@@H]1C[C@@H](C(=O)N[C@@H]([C@H]2O[C@H](SC)[C@H](O)[C@@H](O)[C@H]2O)[C@H](C)Cl)N(C)C1` [Clindamycin], for which the “Diameter of the culture's inhibited growth area” value in the assay on B. subtilis VKPM B-8611 is listed as 9 ± 0.2 mm; in assay [1] (B. licheniformis VKPM B-8610), 12 ± 0.1 mm.

In the case of `CC1(C)S[C@@H]2[C@H](NC(=O)[C@H](C(=O)O)c3ccsc3)C(=O)N2[C@H]1C(=O)O` [Ticarcillin], the “Diameter of the culture's inhibited growth area” value in the assay on B. subtilis VKPM B-8611 is 25 ± 0.4 mm; in assay [1] (B. licheniformis VKPM B-8610), 21 ± 0.2 mm.

Consider `Cn1nnnc1SCC1=C(C(=O)O)N2C(=O)[C@@H](NC(=O)[C@H](O)c3ccccc3)[C@H]2SC1` [Cefamandole], for which the “Diameter of the culture's inhibited growth area” value with B. subtilis VKPM B-8611 came to 35 ± 0.3 mm; in assay [1] (B. licheniformis VKPM B-8610) it was 15 ± 0.1 mm.

For the molecule `NCC[C@H](O)C(=O)N[C@@H]1C[C@H](N)[C@@H](O[C@H]2O[C@H](CN)[C@@H](O)[C@H](O)[C@H]2O)[C@H](O)[C@H]1O[C@H]1O[C@H](CO)[C@@H](O)[C@H](N)[C@H]1O` [Amikacin], the “Diameter of the culture's inhibited growth area” value with B. subtilis VKPM B-8611 turned out to be 22 ± 0.3 mm; in assay [1] (B. licheniformis VKPM B-8610), 17 ± 0.2 mm.

For the molecule Polymyxin B, the “Diameter of the culture's inhibited growth area” value in the assay on B. subtilis VKPM B-8611 turned out to be 11 ± 0.1 mm; in assay [1] (B. licheniformis VKPM B-8610) it was 10 ± 0.2 mm.

Turning to `CN[C@H](CC(C)C)C(=O)N[C@H]1C(=O)N[C@@H](CC(N)=O)C(=O)N[C@H]2C(=O)N[C@H]3C(=O)N[C@H](C(=O)N[C@H](C(=O)O)c4cc(O)cc(O)c4-c4cc3ccc4O)[C@H](O)c3ccc(c(Cl)c3)Oc3cc2cc(c3O[C@@H]2O[C@H](CO)[C@@H](O)[C@H](O)[C@H]2O[C@H]2C[C@](C)(N)[C@H](O)[C@H](C)O2)Oc2ccc(cc2Cl)[C@H]1O` [Vancomycin], the “Diameter of the culture's inhibited growth area” value in the assay on B. subtilis VKPM B-8611 is 12 ± 0.1 mm; in assay [1] (B. licheniformis VKPM B-8610), 10 ± 0.1 mm.

With `CC1(C)S[C@@H]2[C@H](NC(=O)[C@H](NC(=O)N3CCN(S(C)(=O)=O)C3=O)c3ccccc3)C(=O)N2[C@H]1C(=O)O` [Mezlocillin], the “Diameter of the culture's inhibited growth area” value in the assay with B. subtilis VKPM B-8611 was 21 ± 0.2 mm; in assay [1] (B. licheniformis VKPM B-8610), 15 ± 0.2 mm.

Turning to `CC1(C)S[C@@H]2[C@H](NC(=O)[C@H](NC(=O)N3CCNC3=O)c3ccccc3)C(=O)N2[C@H]1C(=O)O` [Azlocillin], the “Diameter of the culture's inhibited growth area” value was 19 ± 0.1 mm with B. subtilis VKPM B-8611 and 16 ± 0.1 mm in assay [1] (B. licheniformis VKPM B-8610).

Turning to `CO/N=C(\C(=O)N[C@@H]1C(=O)N2C(C(=O)O)=C(COC(N)=O)CS[C@H]12)c1ccco1` [Cefuroxime], the “Diameter of the culture's inhibited growth area” value in the assay with B. subtilis VKPM B-8611 is recorded as 2 ± 0.1 mm; in assay [1] (B. licheniformis VKPM B-8610), 3 ± 0.1 mm.

Consider `CO/N=C(\C(=O)N[C@@H]1C(=O)N2C(C(=O)O)=C(CSc3nc(=O)c(=O)[nH]n3C)CS[C@H]12)c1csc(N)n1` [Ceftriaxone], for which the figures for the “Diameter of the culture's inhibited growth area” value (in the assay on B. subtilis VKPM B-8611; in assay [1] (B. licheniformis VKPM B-8610)) were 20 ± 0.4 mm and 12 ± 0.2 mm, respectively.

For `CC1(C)S[C@@H]2[C@H](NC(=O)[C@H](N)c3ccc(O)cc3)C(=O)N2[C@H]1C(=O)O` [Amoxicillin], the results for the “Diameter of the culture's inhibited growth area” value (in the assay on B. subtilis VKPM B-8611; in assay [1] (B. licheniformis VKPM B-8610)) were 19 ± 0.2 mm and 16 ± 0.1 mm, respectively.

For Gentamicin, the entries for the “Diameter of the culture's inhibited growth area” value (in the assay on B. subtilis VKPM B-8611; in assay [1] (B. licheniformis VKPM B-8610)) were 25 ± 0.3 mm and 19 ± 0.2 mm, respectively.

As to `CO/N=C(\C(=O)N[C@@H]1C(=O)N2C(C(=O)O)=C(COC(C)=O)CS[C@H]12)c1csc(N)n1` [Cefotaxime], the “Diameter of the culture's inhibited growth area” value in the assay with B. subtilis VKPM B-8611 is given as 15 ± 0.1 mm; in assay [1] (B. licheniformis VKPM B-8610), 9 ± 0.1 mm.

`CCn1cc(C(=O)O)c(=O)c2ccc(C)nc21` [Nalidixic acid]: the results for the “Diameter of the culture's inhibited growth area” value (in the assay on B. subtilis VKPM B-8611; in assay [1] (B. licheniformis VKPM B-8610)) were 21 ± 0.1 mm and 15 ± 0.1 mm, respectively.

For `COc1cc(Cc2cnc(N)nc2N)cc(OC)c1OC` [Trimethoprim], the “Diameter of the culture's inhibited growth area” value turned out to be 23 ± 0.1 mm with B. subtilis VKPM B-8611 and 25 ± 0.2 mm in assay [1] (B. licheniformis VKPM B-8610).

For the molecule `Cc1nnc(SCC2=C(C(=O)O)N3C(=O)[C@@H](NC(=O)Cn4cnnn4)[C@H]3SC2)s1` [Cefazolin], the “Diameter of the culture's inhibited growth area” value in the assay with B. subtilis VKPM B-8611 turned out to be 25 ± 0.2 mm; in assay [1] (B. licheniformis VKPM B-8610), 19 ± 0.2 mm.

As for `CO[C@@]1(NC(=O)C(C(=O)O)c2ccc(O)cc2)C(=O)N2C(C(=O)O)=C(CSc3nnnn3C)CO[C@@H]21` (stereo partly shown) [Moxalactam], the “Diameter of the culture's inhibited growth area” value is on record as 11 ± 0.2 mm in the assay with B. subtilis VKPM B-8611 and 12 ± 0.3 mm in assay [1] (B. licheniformis VKPM B-8610).

`CC(=O)OCC1=C(C(=O)O)N2C(=O)[C@@H](NC(=O)Cc3cccs3)[C@H]2SC1` [Cephalothin]: the “Diameter of the culture's inhibited growth area” value turned out to be 35 ± 0.1 mm with B. subtilis VKPM B-8611 and 21 ± 0.3 mm in assay [1] (B. licheniformis VKPM B-8610).

`Cc1onc(-c2ccccc2)c1C(=O)N[C@@H]1C(=O)N2[C@@H]1SC(C)(C)[C@@H]2C(=O)O` [Oxacillin]: the “Diameter of the culture's inhibited growth area” value in the assay with B. subtilis VKPM B-8611 was 15 ± 0.3 mm; in assay [1] (B. licheniformis VKPM B-8610), 11 ± 0.1 mm.

With `NC[C@H]1O[C@H](O[C@H]2[C@H](O)[C@@H](O[C@H]3O[C@H](CO)[C@@H](O)[C@H](N)[C@H]3O)[C@H](N)C[C@@H]2N)[C@H](O)[C@@H](O)[C@@H]1O` [Kanamycin], the entries for the “Diameter of the culture's inhibited growth area” value (in the assay on B. subtilis VKPM B-8611; in assay [1] (B. licheniformis VKPM B-8610)) were 22 ± 0.2 mm and 21 ± 0.1 mm, respectively.

With `CO/N=C(\C(=O)N[C@@H]1C(=O)N2C(C(=O)O)=CCS[C@H]12)c1csc(N)n1` [Ceftizoxime], the results for the “Diameter of the culture's inhibited growth area” value (in the assay with B. subtilis VKPM B-8611; in assay [1] (B. licheniformis VKPM B-8610)) were 3 ± 0.1 mm and 11 ± 0.1 mm, respectively.

For `CCn1cc(C(=O)O)c(=O)c2cc(F)c(N3CCNCC3)cc21` [Norfloxacin], the “Diameter of the culture's inhibited growth area” value turned out to be 24 ± 0.2 mm in the assay on B. subtilis VKPM B-8611 and 25 ± 0.2 mm in assay [1] (B. licheniformis VKPM B-8610).

In the case of `CCN1CCN(C(=O)N[C@@H](C(=O)N[C@@H]2C(=O)N3C(C(=O)O)=C(CSc4nnnn4C)CS[C@H]23)c2ccc(O)cc2)C(=O)C1=O` [Cefoperazone], the “Diameter of the culture's inhibited growth area” value with B. subtilis VKPM B-8611 is on record as 15 ± 0.2 mm; in assay [1] (B. licheniformis VKPM B-8610) it was 13 ± 0.1 mm.

Consider `CO[C@@]1(NC(=O)Cc2cccs2)C(=O)N2C(C(=O)O)=C(COC(N)=O)CS[C@@H]21` [Cefoxitin], for which the “Diameter of the culture's inhibited growth area” value in the assay on B. subtilis VKPM B-8611 came out at 18 ± 0.1 mm; in assay [1] (B. licheniformis VKPM B-8610) it was 13 ± 0.1 mm.

For the molecule `NC[C@H]1O[C@H](O[C@H]2[C@H](O)[C@@H](O[C@H]3O[C@H](CO)[C@@H](O)[C@H](N)[C@H]3O)[C@H](N)C[C@@H]2N)[C@H](N)C[C@@H]1O` [Tobramycin], the figures for the “Diameter of the culture's inhibited growth area” value (in the assay on B. subtilis VKPM B-8611; in assay [1] (B. licheniformis VKPM B-8610)) were 25 ± 0.1 mm and 20 ± 0.2 mm, respectively.

As to `CCN1CCN(C(=O)N[C@@H](C(=O)N[C@@H]2C(=O)N3[C@@H]2SC(C)(C)[C@@H]3C(=O)O)c2ccccc2)C(=O)C1=O` [Piperacillin], the “Diameter of the culture's inhibited growth area” value with B. subtilis VKPM B-8611 amounted to 15 ± 0.3 mm; in assay [1] (B. licheniformis VKPM B-8610), 11 ± 0.1 mm.

Take `COc1cccc(OC)c1C(=O)N[C@@H]1C(=O)N2[C@@H]1SC(C)(C)[C@@H]2C(=O)O` [Methicillin]: the “Diameter of the culture's inhibited growth area” value with B. subtilis VKPM B-8611 worked out at 20 ± 0.1 mm; in assay [1] (B. licheniformis VKPM B-8610), 10 ± 0.1 mm.

On to `CC(C)(O/N=C(\C(=O)N[C@@H]1C(=O)N2C(C(=O)[O-])=C(C[n+]3ccccc3)CS[C@H]12)c1csc(N)n1)C(=O)O` [Ceftazidime], for which the “Diameter of the culture's inhibited growth area” value was 6 ± 0.3 mm in the assay with B. subtilis VKPM B-8611 and 13 ± 0.2 mm in assay [1] (B. licheniformis VKPM B-8610).

For `CC1(C)S[C@@H]2[C@H](NC(=O)Cc3ccccc3)C(=O)N2[C@H]1C(=O)O` [Benzylpenicillin], the results for the “Diameter of the culture's inhibited growth area” value (with B. subtilis VKPM B-8611; in assay [1] (B. licheniformis VKPM B-8610)) were 7 ± 0.1 mm and 3 ± 0.2 mm, respectively.

Take `CN(C)[C@@H]1C(O)=C(C(N)=O)C(=O)[C@@]2(O)C(O)=C3C(=O)c4c(O)cccc4[C@@](C)(O)[C@H]3C[C@@H]12` [Tetracycline]: the “Diameter of the culture's inhibited growth area” value in the assay on B. subtilis VKPM B-8611 worked out at 26 ± 0.1 mm; in assay [1], 24 ± 0.1 mm.

Consider `O=C1CN(/N=C/c2ccc([N+](=O)[O-])o2)C(=O)N1` [Nitrofurantoin], for which the “Diameter of the culture's inhibited growth area” value with B. subtilis VKPM B-8611 was determined as 15 ± 0.2 mm; in assay [1] (B. licheniformis VKPM B-8610), 20 ± 0.1 mm.
